Source: PubChem BioAssay (NCI)
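Method: 48-hour compound exposure of cells in 96-well plates, five concentrations, linear interpolation of endpoints. At the GI50, growth is halved. TGI marks complete inhibition of growth.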

What was measured:
Assay in all cases: DTP human tumour cell line panel, 48 h
K-562 leukemia = tested on: K-562 leukemia
HL-60(TB) leukemia = tested on: HL-60(TB) leukemia
OVCAR-8 ovarian = tested on: OVCAR-8 ovarian
HCC-2998 colon = tested on: HCC-2998 colon
SK-MEL-2 melanoma = tested on: SK-MEL-2 melanoma
SNB-75 CNS = tested on: SNB-75 CNS
SN12C renal = tested on: SN12C renal
RPMI-8226 leukemia = tested on: RPMI-8226 leukemia
IGROV1 ovarian = tested on: IGROV1 ovarian
MOLT-4 leukemia = tested on: MOLT-4 leukemia

Row | SMILES | TGI (K-562 leukemia) [µM] | TGI (HL-60(TB) leukemia) [µM] | TGI (OVCAR-8 ovarian) [µM] | TGI (HCC-2998 colon) [µM] | TGI (SK-MEL-2 melanoma) [µM] | TGI (SNB-75 CNS) [µM] | TGI (SN12C renal) [µM] | TGI (RPMI-8226 leukemia) [µM] | TGI (IGROV1 ovarian) [µM] | TGI (MOLT-4 leukemia) [µM] | GI50 (SNB-75 CNS) [µM] | GI50 (RPMI-8226 leukemia) [µM] | GI50 (K-562 leukemia) [µM] | GI50 (HL-60(TB) leukemia) [µM] | GI50 (OVCAR-8 ovarian) [µM] | GI50 (HCC-2998 colon) [µM] | GI50 (SK-MEL-2 melanoma) [µM] | GI50 (SN12C renal) [µM] | GI50 (IGROV1 ovarian) [µM] | GI50 (MOLT-4 leukemia) [µM]
1 | CC(=O)OCC1OC(n2cnc3c(I)nc(I)nc32)C(OC(C)=O)C1OC(C)=O (configuration not stated) | 13.5 | 5.52 | 24.1 | 16.9 | 33 | 30.2 | 26.7 | 31.1 | 19.8 | 24.8 |  |  |  |  |  |  |  |  |  | 
2 | CC(=O)C(CN1CCOCC1)C(c1ccccc1)c1c(O)c2ccccc2oc1=O (configuration not stated) | > 100 | > 100 | > 100 | > 100 | > 100 | > 100 | > 100 | 96.4 | > 100 | > 100 |  |  |  |  |  |  |  |  |  | 
3 | COC(=O)C1(c2ccc(OC)cc2)NC(c2ccccc2)C2C(=O)N(c3ccc(OC)cc3)C(=O)C21 (configuration not stated) | > 100 | > 100 | > 100 | > 100 | > 100 | > 100 | > 100 | > 100 | > 100 | > 100 |  |  |  |  |  |  |  |  |  | 
4 | COC1C2c3ccccc3C(C#N)(Cc3ccc4c(c32)OCO4)N1C(=O)c1ccccc1 (configuration not stated) | > 100 | > 100 | > 100 | > 100 | > 100 | > 100 | > 100 | > 100 | > 100 | > 100 |  |  |  |  |  |  |  |  |  | 
5 | S=c1nc(/C=C/c2ccc(Cl)c(Cl)c2)[nH][nH]1 | > 100 | > 100 | > 100 | > 100 | > 100 | > 100 | > 100 | > 100 | > 100 | > 100 | > 100 | 51.4 |  |  |  |  |  |  |  | 
6 | C[CH2][Sn]([CH2]C)([O]C(=O)c1cc(OC)c(OC)c(OC)c1)[O][Sn]([CH2]C)([CH2]C)[O]C(=O)c1cc(OC)c(OC)c(OC)c1 | > 64.9 | > 100 | > 62.4 | > 100 | 35.3 | > 88.7 | 99.4 | > 100 | > 100 | > 85.8 | 28.6 | 28.7 | 20.9 | 35.1 | > 42.8 | > 76.1 | 16.3 | 44 | > 100 | 25.8
7 | COC(=O)CC(CC(=O)C(=O)OC)C(=O)OC (configuration not stated) | > 100 | > 100 | > 100 | > 100 | > 100 | > 100 | > 100 | > 100 | > 100 | > 100 |  |  |  |  |  |  |  |  |  | 
8 | C=C1C(=O)C23C(O)C1CCC2C12CO[C@]3(O)[C@@H](O)C1C(C)(C)CCC2O (some centres not stated) | > 100 | > 100 | 20.5 | 30.4 | 30.2 | 29.3 | 27.9 | > 100 | 20.3 | > 38.9 |  |  |  |  |  |  |  |  |  | 
9 | C#CCSc1nnnn1-c1ccc(Br)c(C)c1 | > 100 | 87 | > 100 | > 100 | 57 | > 100 | > 100 | 74 | 9.16 | > 100 | 25.7 | 22.5 | 27.6 | 27.3 | 20.3 | 33.8 | 21.6 | 19.1 | 2.77 | 23.3
